Source: patent US20210106700A1, “Fractionated Dosing of a Phospholipid Ether Analog for the Treatment of Cancer” (Cellectar Biosciences, Inc., priority 2018, published 2021)

System: OPM-2 cell line (human multiple myeloma)
Test: OPM-2 multiple myeloma subcutaneous xenograft in CB17 SCID mice (tumor volume, doubling time, survival, body weight)
Format: in vivo, mouse
Details: fractionated dosing
Procedure: The OPM-2 cell line (human multiple myeloma) was purchased from American Type Culture Collection (ATCC, Rockville, Md.) and maintained in McCoy's 5a media supplemented with 10% fetal bovine serum. Female CB17 SCID mice approximately 5-7 weeks of age were injected subcutaneously with 1×10^7 viable cells (in ˜100 μL Dulbecco's PBS) into the right flank. The study was initiated when tumor size had reached a pre-determined size (approximately 150-200 mm3). The mice were given potassium iodide at a concentration of 0.1% in their drinking water to block possible free iodide in the drug formulation three days prior to injection and continuing through two weeks post-injection. Mice were randomly assigned to dose groups. Tumor volume was measured with a caliper during the course of the study. Tumor doubling time calculation4 TDT=D×log(2)/log(1+r/100), where D equals days between measurements and r=rate of growth; r/100=(V2−V1/V1)×100%. Statistical analysis: 1-way Anova, Dunnett's test.

Substance: ^131I-labeled 18-(p-iodo-phenyl)octadecyl phosphocholine [CLR 131]
- Tumor volume vs control (after day 26): statistically significant reduction
- Tumor volume vs all other treatments (at day 52, p<0.05): statistically significant reduction
